Reference: ChEMBL document CHEMBL1158268, “Antiplatelet of vasorelaxing actions of some benzylisoquinoline and phenanthrene alkaloids” (1996)

Assays:
Set-up in all cases: scale not given: the % may be the effect or the level left
Platelet [1] = assay: Inhibition of collagen-induced platelet aggregation in rabbit platelet-rich plasma at 100 ug/ml by turbidimetric method; type: functional, Oryctolagus cuniculus
Platelet [2] = assay: Inhibition of arachidonic acid-induced platelet aggregation in rabbit platelet-rich plasma at 100 ug/ml by turbidimetric method; type: functional, Oryctolagus cuniculus
Platelet [3] = assay: Inhibition of adenosine diphosphate-induced platelet aggregation in rabbit platelet-rich plasma at 100 ug/ml by turbidimetric method; type: functional, Oryctolagus cuniculus
Platelet [4] = assay: Inhibition of platelet-activity factor-induced platelet aggregation in rabbit platelet-rich plasma at 100 ug/ml by turbidimetric method; type: functional, Oryctolagus cuniculus
Aorta [5] = assay: Vasorelaxant activity against norepinephrine-induced tonic contraction in Wistar rat thoracic aorta at 100 ug/ml; type: functional
Aorta [6] = assay: Vasorelaxant activity against high potassium-induced contraction in Wistar rat thoracic aorta at 100 ug/ml; type: functional
Aorta [7] = assay: Vasorelaxant activity against norepinephrine-induced phasic contraction in Wistar rat thoracic aorta at 100 ug/ml; type: functional
Platelet [8] = assay: Inhibition of adenosine diphosphate-induced platelet aggregation in rabbit platelet-rich plasma at 50 ug/ml by turbidimetric method; type: functional, Oryctolagus cuniculus
Platelet [9] = assay: Inhibition of platelet-activity factor-induced platelet aggregation in rabbit platelet-rich plasma at 50 ug/ml by turbidimetric method; type: functional, Oryctolagus cuniculus
Platelet [10] = assay: Inhibition of arachidonic acid-induced platelet aggregation in rabbit platelet-rich plasma at 50 ug/ml by turbidimetric method; type: functional, Oryctolagus cuniculus
Platelet [11] = assay: Inhibition of collagen-induced platelet aggregation in rabbit platelet-rich plasma at 50 ug/ml by turbidimetric method; type: functional, Oryctolagus cuniculus
Aorta [12] = assay: Vasorelaxant activity against norepinephrine-induced phasic contraction in Wistar rat thoracic aorta at 20 ug/ml; type: functional
Aorta [13] = assay: Vasorelaxant activity against high potassium-induced contraction in Wistar rat thoracic aorta at 20 ug/ml; type: functional
Aorta [14] = assay: Vasorelaxant activity against norepinephrine-induced tonic contraction in Wistar rat thoracic aorta at 20 ug/ml; type: functional

| SMILES | Activity (Platelet [1]) | Activity (Platelet [2]) | Activity (Platelet [3]) | Activity (Platelet [4]) | Activity (Aorta [5]) | Activity (Aorta [6]) | Activity (Aorta [7]) | Activity (Platelet [8]) | Activity (Platelet [9]) | Activity (Platelet [10]) | Activity (Platelet [11]) | Activity (Aorta [12]) | Activity (Aorta [13]) | Activity (Aorta [14]) |
| --- | --- | --- | --- | --- | --- | --- | --- | --- | --- | --- | --- | --- | --- | --- |
| COc1ccc(C[C@@H]2c3cc(OC)c(OC)cc3CCN2C)cc1OC | 81.4% | 81.2% | 92.2% | 92.5% |  |  |  |  |  |  |  |  |  |  |
| COc1cc2ccc3c(CCN(C)C)cc4c(c3c2cc1OC)OCO4 | 6.1% | 46.9% | 34.9% | 80.5% | 0% | 44.6% | 7.1% |  |  |  |  |  |  |  |
| COc1ccc2c(ccc3c(CCN(C)O)cc4c(c32)OCO4)c1 |  |  |  |  | 91.9% | 55.8% | 102% | 58.6% | 74.8% | 0% | 23.5% |  |  |  |
| COc1cc(CC[N+](C)(C)[O-])c2ccc3ccccc3c2c1OC | 0% | 0% | 37.4% | 61.1% | 27.5% | 5.8% | 30% |  |  |  |  |  |  |  |
| COc1cc2ccc3c(CC[N+](C)(C)[O-])cc(OC)c(OC)c3c2cc1OC | 52.1% | 83.5% | 74.6% | 87.2% |  |  |  |  |  |  |  | 72.5% | 104.2% | 83.2% |
| COc1cc2c(cc1OC)[C@H](Cc1ccc(O)cc1)NCC2.[O-][Cl+3]([O-])([O-])O | 83.6% | 60.5% | 63.1% | 78.2% | 90.5% | 43% | 100% |  |  |  |  |  |  |  |
| COc1ccc(C[C@@H]2NCCc3cc(OC)c(OC)cc32)cc1.O=C(O)C(=O)O | 86.6% | 87.3% | 93.4% | 91.4% |  |  |  |  |  |  |  |  |  |  |
| COc1ccc(C[C@H]2NCCc3cc(OC)c(OC)cc32)cc1 | 79.2% | 89.2% | 93.1% | 90.7% |  |  |  |  |  |  |  |  |  |  |
| COc1cc2c(cc1OC)[C@H](Cc1ccc(O)cc1)N(C)CC2.O=C(O)C(=O)O | 82.4% | 79.5% | 89.7% | 91.5% |  |  |  |  |  |  |  |  |  |  |
| COc1cc2c(cc1OC)[C@@H](Cc1ccc(O)cc1)N(C)CC2.O=C(O)C(=O)O | 88.4% | 91.3% | 92.7% | 93.6% |  |  |  |  |  |  |  |  |  |  |
| COc1cc2c(cc1OC)[C@H](Cc1ccc(O)cc1)[N+](C)(C)CC2.[I-] | 39.6% | 66.8% | 93.7% | 88.4% |  |  |  |  |  |  |  |  |  |  |
